Source: patent US4874844A, “Tripeptide with immunostimulating activity” (Ellem Industria Farmaceutica S.p.A., priority 1986, dated 1989)
Peptide text beside a SMILES is read from it.

Experiments:
[1] = tested on: rats; experiment: Acute toxicity in rats; assay type: in vivo; conditions: up to a dose of 1000 mg/Kg i.m.
[2] = tested on: mice; experiment: Tolerability in mice; assay type: in vivo; conditions: 100 mg/Kg i.p.
[3] = tested on: rabbits; experiment: Tolerability in rabbits; assay type: in vivo; conditions: 100 mg/Kg i.v.
[4] = assay type: in vitro ADME
Description: Resistance to the In Vitro Simulated Gastric Ambient The tripeptide is resistant to the in vitro simulated gastric ambient. In this study the gastric simulated juice USP XXI (HCl+pepsin) has been used at 37 C for 5 hrs.

[5] = Pentobarbital-induced sleeping time; assay type: in vivo; conditions: 100 mg/Kg
[6] = tested on: mice; experiment: Acute toxicity in mice; assay type: in vivo; conditions: up to a dose of 1000 mg/Kg i.m.
[7] = tested on: guinea-pig; conditions: in vivo, 100 mg/kg

N=C(N)NCCC[C@H](N)C(=O)N[C@@H](CCCCN)C(=O)N[C@@H](CCC(=O)O)C(=O)O [ELS1, Arg-Lys-Glu] (H-Arg-Lys-Glu-OH)
acute toxicity [1]: totally devoid of toxic effects
tolerability: hemodynamic modification and behavioral effect [2]: doesn't cause any hemodynamic modification and behavioral effect
tolerability: hemodynamic modification and behavioral effect [3]: doesn't cause any hemodynamic modification and behavioral effect
resistance to the in vitro simulated gastric ambient [4]: resistant
pentobarbital-induced sleeping time [5]: only a slight increase
acute toxicity [6]: totally devoid of toxic effects
sensitization phenomena [7]: doesn't induce any sensitization phenomena
